Results on two molecules are retold here after patent US20260184706A1, “PHENYLSULFONAMIDE DERIVATIVES, PREPARATION METHOD THEREFOR, AND PHARMACEUTICAL COMPOSITION FOR PREVENTION OR TREATMENT OF CANCER CONTAINING SAME AS ACTIVE INGREDIENT” (Korea Research Institute of Chemical Technology, priority 2022, published 2026).

The structures appear in SMILES notation.

The IC50 is the concentration that gives 50% inhibition.

In one assay the target is T1, phosphorylated GCN2 (Homo sapiens, UniProt Q9P2K8).
T1 construct: endogenous in cells; host or cells: HT-1080
T1 sequence (Q9P2K8 whole entry): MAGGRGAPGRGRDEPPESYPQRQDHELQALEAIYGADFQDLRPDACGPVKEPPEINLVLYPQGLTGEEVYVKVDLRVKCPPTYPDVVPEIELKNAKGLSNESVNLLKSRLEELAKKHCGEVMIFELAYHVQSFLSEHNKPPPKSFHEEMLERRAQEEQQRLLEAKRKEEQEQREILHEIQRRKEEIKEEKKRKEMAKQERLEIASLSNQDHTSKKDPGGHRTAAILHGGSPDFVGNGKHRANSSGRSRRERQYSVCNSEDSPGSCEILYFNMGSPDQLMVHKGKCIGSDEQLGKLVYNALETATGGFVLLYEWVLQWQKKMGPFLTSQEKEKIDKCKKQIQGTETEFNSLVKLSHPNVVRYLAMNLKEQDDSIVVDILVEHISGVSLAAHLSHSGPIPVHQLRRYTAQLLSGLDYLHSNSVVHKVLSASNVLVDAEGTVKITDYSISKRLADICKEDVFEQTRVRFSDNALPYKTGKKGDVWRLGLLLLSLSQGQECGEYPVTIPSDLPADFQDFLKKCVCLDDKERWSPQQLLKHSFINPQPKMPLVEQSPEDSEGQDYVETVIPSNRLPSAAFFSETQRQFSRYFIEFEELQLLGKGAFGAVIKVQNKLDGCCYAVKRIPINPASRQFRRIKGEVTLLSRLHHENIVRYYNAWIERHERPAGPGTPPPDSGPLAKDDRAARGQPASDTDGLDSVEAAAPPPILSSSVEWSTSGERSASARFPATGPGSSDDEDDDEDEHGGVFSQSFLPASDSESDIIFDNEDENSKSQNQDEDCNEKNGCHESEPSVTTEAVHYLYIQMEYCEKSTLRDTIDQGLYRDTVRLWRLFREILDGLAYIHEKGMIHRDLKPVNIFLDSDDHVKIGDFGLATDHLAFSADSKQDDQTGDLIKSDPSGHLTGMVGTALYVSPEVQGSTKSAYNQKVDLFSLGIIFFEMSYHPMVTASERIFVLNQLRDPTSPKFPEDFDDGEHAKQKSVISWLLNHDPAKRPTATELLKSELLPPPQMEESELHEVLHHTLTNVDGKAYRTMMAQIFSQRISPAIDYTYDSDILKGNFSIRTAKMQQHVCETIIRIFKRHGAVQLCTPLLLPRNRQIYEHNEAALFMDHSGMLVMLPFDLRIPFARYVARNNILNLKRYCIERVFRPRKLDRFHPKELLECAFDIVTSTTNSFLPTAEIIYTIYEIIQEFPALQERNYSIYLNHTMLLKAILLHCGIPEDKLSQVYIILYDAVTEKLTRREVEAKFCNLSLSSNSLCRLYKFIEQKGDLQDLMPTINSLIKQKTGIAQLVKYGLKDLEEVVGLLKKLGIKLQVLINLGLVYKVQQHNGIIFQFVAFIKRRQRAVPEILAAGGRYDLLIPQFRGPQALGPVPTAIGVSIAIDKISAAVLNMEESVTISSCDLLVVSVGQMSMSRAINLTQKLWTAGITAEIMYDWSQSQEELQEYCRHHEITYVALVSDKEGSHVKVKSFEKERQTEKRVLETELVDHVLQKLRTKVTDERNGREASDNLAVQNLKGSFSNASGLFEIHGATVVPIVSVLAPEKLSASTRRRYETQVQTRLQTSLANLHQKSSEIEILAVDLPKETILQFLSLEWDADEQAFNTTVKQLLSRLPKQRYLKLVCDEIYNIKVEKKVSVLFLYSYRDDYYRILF
The assay can be described thus: Inhibition of phosphorylated GCN2 under amino acid deficiency in HT-1080 cells, Western blot. The assay is classed as cell-based. The settings on record: compound 50 nM, 24 hours; for Phospho-GCN2 inhibition: symbols ◯ / X not defined. On the procedure:
(§1) <Experimental Example 5> Evaluation of Inhibitory Efficacy of ISR-Related Kinase GCN2 Under Amino Acid Deficiency Condition Using Western Blot
(§2) HT-1080 cells, a human fibrosarcoma cell line, were cultured in RPMI-1640 medium supplemented with 10% FBS, penicillin (penicillin; 100 IU/ml), and streptomycin (streptomycin; 100 μg/ml). Cells (1×10^6 cells/ml) were seeded onto 100 mm plates (polypropylene tissue culture plate) and incubated for 24 hours in a 37° C., 5% CO2 incubator before being used for experiments.
(§3) The following method was used to achieve amino acid deficiency conditions in cells. After 24 hours of cell culture, the cells were cultured in amino acids and L-glutamine-free RPMI-1640 medium supplemented with 10% FBS, penicillin (100 IU/ml), and streptomycin (100 μg/ml). After 24 hours of cell culture in RPMI-1640 without amino acids and L-glutamine, the compound prepared at a concentration of 50 nM was dispensed onto each plate and cultured for 24 hours in a 37° C., 5% CO2 incubator.
(§4) In order to measure the signal transduction inhibitory efficacy of GCN among the ISR-related kinases according to the present invention, the following experiment was performed using SDS-PAGE. The fibrosarcoma cell line HT-1080 cells cultured on plates as described above were washed with PBS after removing the culture medium. After removing PBS, the cells were lysed by adding a radio-immunoprecipitation assay buffer (RIPA buffer) containing 50 mM Tris (pH 7.4), 150 mM NaCl, 1% NP-40, 0.5% sodium deoxycholate, 2 mM sodium fluoride, 2 mM EDTA, 0.1% SDS, and a protease/phosphatase inhibitor cocktail to the plate. After centrifugation at 4° C., 13,000×g for 15 minutes, the protein in the upper layer was collected, and the protein concentration was measured at 562 nm using BCA (bicinchoninc acid) reagent, and the amount of protein in all samples was prepared at 20-50 μg.
(§5) After making the total volume the same using the sample buffer and RIPA buffer, it was heated at 97° C. for 5 minutes. Then, electrophoresis was performed on 8% or 12% SDS-PAGE at 80 V for 30 minutes and at 160 V for 1 hour and 30 minutes. After electrophoresis, the SDS-PAGE gel was transferred to an NC membrane (nitrocellulose membrane) at 90 V for 2 hours. The NC membrane was placed in TBST (tris buffer saline tween-20; 20 mM tris, 137 mM sodium chloride, 0.1% tween-20, pH 8.0) containing 5% non-fat skim milk, placed on a shaker, and reacted at room temperature for 1 hour.
(§6) Each primary antibody was diluted in TBST containing 5% non-fat skim milk, poured onto the NC membrane, and reacted at 4° C. for 24 hours. The membrane was washed three times for 10 minutes each with TBST. The secondary antibodies (anti-rabbit IgG and anti-mouse IgG labeled with horseradish peroxidase (HRP)) were diluted in TBST containing 5% non-fat skim milk and reacted with the membrane at room temperature for 1 hour. Upon completion of the reaction, the membrane was washed three times with TBST for 10 minutes each. Protein expression bands were detected by a chemiluminescence image analyzer (Image Quant LAS 500) after the ECL solution was reacted with the NC membrane.
GCN2, a key kinase of the integrated stress response (ISR), is phosphorylated in response to amino acid deficiency.
On the technique in general: Immunoblotting shows a protein as a band on a membrane.

For assay [1], the target named is recombinant human GCN2 protein (Homo sapiens, UniProt Q9P2K8). Briefly: General control nonderepressible 2 (GCN2) inhibitory capacity, 33P-ATP filter assay. The settings on record: recombinant human GCN2, 70 uM [gamma-33P-ATP], 40 minutes, room temperature. The assay is classed as biochemical.
Chain of recombinant human GCN2 protein (Q9P2K8 whole entry): as above
A further assay has as its system ATF4. The assay can be described thus: Inhibition of ATF4, downstream factor of ISR, in HT-1080 cells, Western blot (FIG. 1). The assay is classed as cell-based, human. The settings on record: amino acid deficiency, compound 50 nM, 24 hours. Here is the method: as §1, §2, §3, §4, §5, §6
FIG. 1 is a set of photographs confirming the mechanism proteins that react upon ISR activation, wherein the numbers correspond to example numbers of the present invention. […] They are also known to have an effect on increasing the expression of CHOP (GADD153), the most downstream factor of the mechanism. […] Thus, in addition to the activation of ISR by amino acid deficiency, a significant effect can be expected on the mechanism of inhibition of the activity of PERK, an ISR-related kinase, due to endoplasmic reticulum stress response.

Consider `Cn1c(=O)n(-c2c(F)ccc(NS(=O)(=O)c3cccc4ccccc34)c2F)c(=O)c2cnc(N)nc21` [Example 43, N-(3-(7-amino-1-methyl-2,4-dioxo-1,4-dihydropyrimido[4,5-d]pyrimidin-3(2H)-yl)-2,4-difluorophenyl)naphthalene-1-sulfonamide], for which, at phosphorylated GCN2, the “inhibitory effect on the phosphorylated GCN2” value is given as “excellent inhibitory effects” and the Phospho-GCN2 inhibition entry is given as “◯”. Besides, the IC50 in assay [1] lay within 100 to 300 nM. Also, in the assay on ATF4, the “inhibitory effect on ATF4 (FIG. 1)” value is on record as “excellent inhibitory effects”.

As to `COc1ccc(Br)cc1S(=O)(=O)Nc1ccc(F)c(-n2c(=O)c3cnc(N)nc3n(C)c2=O)c1F` [Example 51, N-(3-(7-amino-1-methyl-2,4-dioxo-1,2-dihydropyrimido[4,5-d]pyrimidin-3(4H)-yl)-2,4-difluorophenyl)-5-bromo-2-methoxybenzenesulfonamide], on phosphorylated GCN2, the “inhibitory effect on the phosphorylated GCN2” value is listed as “excellent inhibitory effects” and the Phospho-GCN2 inhibition entry was “◯”. The half-maximal inhibitory concentration (IC50) in assay [1] is 100 to 300 nM. For the same molecule, the “inhibitory effect on ATF4 (FIG. 1)” value with ATF4 was “excellent inhibitory effects”.
